# Patent US20150250786A1, “PYRIMIDINE HYDROXY AMIDE COMPOUNDS AS PROTEIN DEACETYLASE INHIBITORS AND METHODS OF USE THEREOF” (THE TRUSTEES OF THE UNIVERSITY OF PENNSYLVANIA, priority 2012, published 2015)
# Legend:
# mice [1] = test: Elevated plus maze (EPM); type: in vivo, mouse; details: acute administration
# HDAC1 = HDAC1 (Homo sapiens, UniProt Q13547); test: HDAC enzyme assay, HDAC1; details: selectivity HDAC6 over HDAC1
# HDAC2 = HDAC2 (Homo sapiens, UniProt Q92769); test: HDAC enzyme assay, HDAC2; details: selectivity HDAC6 over HDAC2
# Sequence of HDAC2 (Q92769 whole entry): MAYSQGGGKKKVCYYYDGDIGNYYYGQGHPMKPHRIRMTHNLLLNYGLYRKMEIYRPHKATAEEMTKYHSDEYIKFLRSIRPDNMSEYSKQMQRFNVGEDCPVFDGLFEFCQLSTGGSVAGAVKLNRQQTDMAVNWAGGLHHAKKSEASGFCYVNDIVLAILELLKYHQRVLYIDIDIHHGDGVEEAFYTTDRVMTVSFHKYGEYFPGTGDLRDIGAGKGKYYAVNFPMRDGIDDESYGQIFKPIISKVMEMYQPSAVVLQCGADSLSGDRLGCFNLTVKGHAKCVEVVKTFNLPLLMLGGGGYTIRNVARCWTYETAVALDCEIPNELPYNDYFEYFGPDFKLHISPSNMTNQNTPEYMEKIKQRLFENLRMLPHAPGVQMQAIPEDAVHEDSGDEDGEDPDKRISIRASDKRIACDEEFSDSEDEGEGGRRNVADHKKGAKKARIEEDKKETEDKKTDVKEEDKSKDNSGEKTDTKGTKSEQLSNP
# HDAC3 = HDAC3 (Homo sapiens, UniProt O15379); test: HDAC enzyme assay, HDAC3; details: selectivity HDAC6 over HDAC3
# Sequence of HDAC3 (O15379 whole entry): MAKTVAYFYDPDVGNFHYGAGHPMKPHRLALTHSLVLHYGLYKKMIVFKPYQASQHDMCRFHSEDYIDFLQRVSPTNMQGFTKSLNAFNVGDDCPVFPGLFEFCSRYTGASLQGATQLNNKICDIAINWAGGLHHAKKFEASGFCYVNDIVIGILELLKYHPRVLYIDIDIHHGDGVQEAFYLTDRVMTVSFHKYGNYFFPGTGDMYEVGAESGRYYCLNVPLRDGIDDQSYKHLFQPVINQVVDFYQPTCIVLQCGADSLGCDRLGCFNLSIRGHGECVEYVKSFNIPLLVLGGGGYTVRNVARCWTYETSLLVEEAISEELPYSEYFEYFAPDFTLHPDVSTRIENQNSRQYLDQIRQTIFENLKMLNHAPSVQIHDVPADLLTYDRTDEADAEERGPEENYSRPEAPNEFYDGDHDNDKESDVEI
# Sequence of HDAC3 (Q9Y618 395-489 partner limits assumed): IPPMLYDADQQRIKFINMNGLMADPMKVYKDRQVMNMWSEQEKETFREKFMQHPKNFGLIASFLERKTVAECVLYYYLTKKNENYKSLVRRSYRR
# [2] = tested on: RN46A-B14 serotonergic cell line; test: Histone H3K9 acetylation in RN46A-B14 cells (Western blot); type: cell-based, rat; details: 4 hours
# [3] = tested on: RN46A-B14 serotonergic cell line; test: α-tubulin K40 acetylation in RN46A-B14 cells (Western blot); type: cell-based, rat; details: for acetylated (lysine 40) fraction of α-tubulin: 4 hours, TSA 0.6 μM, others 2.5 μM
# Experimental: In FIG. 3, it was observed that subchronic treatment, consisting of 5 treatments at 48, 28, 24, 4 and ½ hours before sacrifice, led to greater increase in tubulin acetylation than did chronic treatment of 1 injection/day for 21 days. For cell culture, RN46B cells were treated for with 0.25, 2.5 or 25 μM drug in DMSO for 1, 4 or 24 hours as indicated. Tukey post-hoc analysis: * P=0.01 to 0.05, ** P=0.001-0.01, ***P<0.001 when compared with vehicle treatment.
# Results are shown as percent change normalized to the vehicle treatment condition. The horizontal hard line depicts average and the dotted lines depict SEM of the vehicle treated wells. Representative Western blot images are presented. […] Representative Western blot images are presented. […] The drugs (5 mg/kg) were administered subchronically (at 24 h, 4 h and 30 min prior to sacrifice) to HDAC6 KO and WT littermates. The changes in tubulin acetylation were measured in tissue lysates from cortex (ctx), hippocampus (Hpc), dorsal Raphe nucleus (DRN) and cerebellum (cb). The tubulin acetylation levels in drug-treated mice are expressed as percent change of the vehicle-treated mice of the corresponding genotype. The horizontal lines depict the average tubulin acetylation±SEM in the vehicle treated mice. The representative Western blot images show the changes induced by each drug treatment in the hippocampus (left column) and dorsal raphe (right column) of WT and HDAC6 KO mice.
# In contrast to the class I isoforms HDAC2 and 3, which are expressed highly and ubiquitously in the mouse brain, HDAC6 mRNA expression appears to be restricted to a small number of brain areas, with highest signal observed in DRN (FIG. 13f). […] No changes in total α-tubulin expression were detected (FIG. 14a).
# mice [4] = test: Open-field test; type: in vivo, mouse; details: acute; compounds 73, 101 50 mg/kg; tubastatin A 10 mg/kg
# [5] = tested on: α-tubulin acetylation in mouse whole brain lysates; test: α-tubulin acetylation in whole brain lysates after single i.p. administration; type: in vivo; details: compound 73 5 mg/kg, compound 101 50 mg/kg, tubastatin A 10 mg/kg, 30 min, 1 h, 4 h
# [6] = Pharmacokinetics and brain bio-distribution in mice; type: in vivo, mouse
# Experimental: […] Plasma samples were taken from all mice upon sacrifice. Brain samples were taken from the mice sacrificed at 5 and 15 minutes and 1 and 4 hours. The brain samples were homogenized in PBS and centrifuged at 14000 rpm for 5 minutes. The supernatant from the brain homogenate and the plasma samples were injected onto a LC/MS/MS for analysis. The compound level in the samples was determined by a standard curve in the appropriate matrix. Pharmacokinetic parameters were determined from the raw data by WinNonLin.
# [7] = tested on: α-tubulin acetylation in heart; test: α-tubulin acetylation in heart after single systemic administration; type: in vivo, mouse; details: 10 mg/kg
# Experimental: The changes were significant at 30 minutes (F3,13=163.4, P<0.0001), 1 hour (F3,13=163.9, P<0.0001) and 4 hours (F3,14=4.703, P=0.0179) after the administrations.
# mice [8] = test: Chronic social defeat (CSD) and social interaction test; type: in vivo, mouse; details: after CSD; fluoxetine 20 mg/kg, compound 73 5 mg/kg, compound 101 50 mg/kg
# Experimental: Additionally, when combined with a dose of Citalopram with lower activity, these compounds seemed to have an additive effect (See FIG. 10). The dose of Citalopram chosen for this experiment was based on literature stating 2 mg/kg should be subactive, but this dose was found still showing an effect. Mice then underwent chronic social defeat stress, in which the mice are exposed to an aggressive resident mouse for 5 minutes daily for 10 days and are then tested on the 11th day in the social interaction test. Mice treated with vehicle for 20 total days, beginning 10 days before the defeat, show reduced time spent in the interaction zone when a target mouse is present when compared with control mice. […] The percent of mice found to be resilient, defined as spending more time in the interaction zone than the lowest control (i.e. ˜52 s), is higher in HDAC6 inhibitor groups. All behavior testing done using NIH Swiss mice, age 6-10 weeks. Tukey post-hoc analysis: * P=0.01 to 0.05, ** P=0.001-0.01, ***P<0.001 compared with vehicle treated mice.
# The effects were observed 30 minutes after acute 50 mg/kg i.p. injection, but not for the lower dose (5 mg/kg). Combination of subactive doses of the HDAC6 selective inhibitors (5 mg/kg) and citalopram (0.5 mg/kg) produced robust potentiation of anti-immobility activity (n=8-29 per condition). […] No difference was observed between HDAC6 WT and KO when treated with the vehicle (n=6-15 per condition). FIG. 16c is a timeline showing treatment period, social defeat and social interaction (SI) testing.
# A pro-resilient phenotype in the mouse CSD paradigm after serotonin-selective KO of HDAC6 was previously reported (Espallergues et al, 2012). Whether a chronic pharmacological inhibition of HDAC6 can replicate that phenotype is studied. […] On day 21, 24 h after the last injection, the mice were tested in the social interaction test. […] Significant effects were also observed when data was evaluated in terms of proportion of mice reaching criterion for resiliency.
# [9] = tested on: histone H3 lysine 9 acetylation; test: Histone H3K9 acetylation in vivo (Western blot, ChIP); design: species or system mouse; details: hippocampus; repeated i.p.; compound 73 5 mg/kg, sodium butyrate 1.2 g/kg
# Sequence of HDAC1 (Q13547 whole entry): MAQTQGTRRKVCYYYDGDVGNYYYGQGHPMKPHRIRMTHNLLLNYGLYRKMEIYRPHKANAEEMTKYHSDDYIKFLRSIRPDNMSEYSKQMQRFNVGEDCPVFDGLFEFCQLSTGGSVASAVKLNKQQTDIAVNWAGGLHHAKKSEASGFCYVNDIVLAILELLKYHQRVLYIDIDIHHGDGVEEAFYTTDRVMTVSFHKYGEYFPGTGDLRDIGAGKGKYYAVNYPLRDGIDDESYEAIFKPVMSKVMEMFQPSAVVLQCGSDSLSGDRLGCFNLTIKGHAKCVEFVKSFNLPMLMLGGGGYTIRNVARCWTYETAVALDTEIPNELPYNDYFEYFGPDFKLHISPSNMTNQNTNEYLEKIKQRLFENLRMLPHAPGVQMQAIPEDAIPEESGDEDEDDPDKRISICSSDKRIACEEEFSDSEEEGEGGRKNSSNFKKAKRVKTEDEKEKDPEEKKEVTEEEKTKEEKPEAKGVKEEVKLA
Structure (SMILES),HDAC1 fold versus HDAC6 (in brackets) (HDAC1),HDAC2 fold versus HDAC6 (in brackets) (HDAC2),HDAC3 fold versus HDAC6 (in brackets) (HDAC3),also measured
"CNC1=Nc2ccc(Cl)cc2C(c2ccccc2)=[N+]([O-])C1 [CDP, reference compound]",–,–,–,behavioral changes / time in the open arms of the maze (mice [1]): dramatically increased
O=C(NO)c1cnc(NC2(c3ccc(F)cc3)CC2)nc1 [Compound 81],(18.3x),(30.2x),(46.4x),–
O=C(NO)c1cnc(NC2(c3ccccc3)CCCCC2)nc1 [Compound 84],(302.2x),(403.4x),(613x),–
O=C(NO)c1cnc(NC2(c3ccccc3)CCCC2)nc1 [Compound 88],(215.2x),(296.1x),(679.1x),–
O=C(NO)c1cnc(NC2(c3ccccc3Cl)CC2)nc1 [Compound 90],(19.9x),(26.2x),(30.2x),–
O=C(NO)c1cnc(NC2(c3ccccc3C(F)(F)F)CC2)nc1 [Compound 91],(72.3x),(130.2x),(169.4x),–
Cc1ccc(C2(Nc3ncc(C(=O)NO)cn3)CC2)cc1 [Compound 93],(25.9x),(34.7x),(51x),–
COc1ccc(C2(Nc3ncc(C(=O)NO)cn3)CC2)cc1 [Compound 97],(8.3x),(12.1x),(16.4x),–
O=C(NO)c1cnc(NC2(c3ccc(F)cc3)CCCCC2)nc1 [Compound 100],(339.9x),(504.7x),(1428.4x),–
"CC(/C=C/C(=O)NO)=C\[C@@H](C)C(=O)c1ccc(N(C)C)cc1 [TSA, trichostatin A, reference compound]",–,–,–,increase in acetylation of histone H3 at lysine 9 ([2]; TSA 0.6 μM): 94%; acetylated (lysine 40) fraction of α-tubulin [3]: increases
"CN1CCc2c(c3ccccc3n2Cc2ccc(C(=O)NO)cc2)C1 [Tubastatin A, reference compound]",–,–,–,"exploratory activity in novel open-field arena (mice [4]): did not exhibit changes; α-tubulin acetylation in whole brain lysates [5]: did not significantly change; 30 min plasma concentration (ng/ml) - 5 mg/kg ([6]; 5 mg/kg): 278 ng/mL; Cmax ([6]; mice, acute i.p. dosing): 496 ng/mL; T½ plasma ([6]; mice, acute i.p. dosing): 2 h; plasmatic half-life ([6]; mouse, in vivo): 2 h; change in histone H3K9 acetylation ([2]; 2.5 μM): no significant change; increase in α-tubulin acetylation in tissue culture [3]: about 400%; acetylated (lysine 40) fraction of α-tubulin [3]: increases; increase of α-tubulin acetylation in heart [7]: 268%"
"CNCCC(Oc1ccc(C(F)(F)F)cc1)c1ccccc1 (stereo not drawn) [fluoxetine, reference compound]",–,–,–,percentage of resilient mice (mice [8]): 60%
"CCCC(=O)[O-].[Na+] [sodium butyrate, reference compound]",–,–,–,"histone H3K9 acetylation enrichment at promoter DNA (cFOS, BDNF promoter 4), ChIP [9]: increases in enrichment"
